Patent US11202761B2, “Formulations for oral delivery of adsorbents in the gut” (Da Volterra, priority 2010, dated 2021)
Like-named read-outs stand apart in the source and are kept apart here.

Experiments:
[1] = Kinetics of ciprofloxacin adsorption by activated charcoal measured by microbiological assay; details: ciprofloxacin 50 μg/ml, 150 μg/ml activated charcoal, pH 6.0
Procedure: The microbiological assay consists in measuring the biological activity of an antibiotic, i.e. its capacity to inhibit the growth of an indicator bacterial strain. […] 20 μl samples containing the antibiotic to be measured were spotted onto paper discs applied directly onto the surface of the agar plates. After 18 h incubation at 37° C., the diameters of the zones around the paper discs where bacterial growth had been inhibited by the presence of the antibiotic were measured.

[2] = in vitro adsorption of various antibiotics onto activated charcoal; type: physicochemical; details: PBS pH 6, 37° C.
Procedure: (15 ml polypropylene tube, slow rotation 20 rpm), • sampling at 0.5 h, 1 h and 2 h, • Residual antibiotic dosage (i.e., not adsorbed) was determined by UV/visible spectrophotometric analysis.

[3] = In vitro adsorption kinetics of SN-38 onto activated charcoal; type: physicochemical; details: activated charcoal/SN-38 ratio of 10:1, 50 μg/mL in 0.01 M NaOH pH 12
Procedure: SN-38 was dissolved at a concentration of 50 μg/mL in 0.01 M NaOH pH 12. Non adsorbed SN-38 was detected after centrifugation and filtration by at its absorbance at 411 nm using a spectrophotometer.

topoisomerase I = molecular target: T1, topoisomerase I (Homo sapiens, UniProt P11387); details: in vitro; cited from earlier work
T1 sequence (P11387 1-765): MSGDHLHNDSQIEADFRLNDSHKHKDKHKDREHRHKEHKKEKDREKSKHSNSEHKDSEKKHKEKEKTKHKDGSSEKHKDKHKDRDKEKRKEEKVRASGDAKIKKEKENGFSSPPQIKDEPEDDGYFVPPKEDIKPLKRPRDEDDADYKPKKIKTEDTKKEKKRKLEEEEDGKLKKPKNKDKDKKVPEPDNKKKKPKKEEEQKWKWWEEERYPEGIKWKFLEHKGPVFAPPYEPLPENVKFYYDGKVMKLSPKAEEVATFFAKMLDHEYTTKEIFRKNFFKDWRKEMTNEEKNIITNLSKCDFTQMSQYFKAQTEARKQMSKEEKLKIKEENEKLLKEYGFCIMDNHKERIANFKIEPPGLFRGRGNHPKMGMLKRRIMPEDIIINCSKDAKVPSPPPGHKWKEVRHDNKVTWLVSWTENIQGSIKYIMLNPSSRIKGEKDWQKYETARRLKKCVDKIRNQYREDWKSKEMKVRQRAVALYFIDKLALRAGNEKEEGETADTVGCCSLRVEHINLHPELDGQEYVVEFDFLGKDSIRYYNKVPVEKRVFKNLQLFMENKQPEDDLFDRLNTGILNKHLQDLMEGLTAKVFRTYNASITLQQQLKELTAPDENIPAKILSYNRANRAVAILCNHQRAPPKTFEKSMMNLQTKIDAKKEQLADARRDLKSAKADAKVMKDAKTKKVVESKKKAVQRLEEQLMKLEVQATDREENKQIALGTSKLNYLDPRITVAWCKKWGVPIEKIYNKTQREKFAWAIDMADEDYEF

[4] = 10:1 ratio of activated charcoal/irinotecan, 200 μg/mL, simulated ileal medium pH 7.5
Description: Samples were centrifuged, filtered, and diluted ten-fold, prior to determination of the non-adsorbed concentration of irinotecan by measuring its absorbance at 368 nm using a spectrophotometer.

[5] = start 3/1, extra charcoal: 6/1 after 1 h and 9/1 after 2 h
[6] = start 10/1, extra charcoal: 20/1 after 1 h and 30/1 after 2 h

| Compound | Residual antibiotic after 2 h (*) [2, 5] | Residual antibiotic after 2 h (*) [2, 6] | further results |
| --- | --- | --- | --- |
| O=C(O)c1cn(C2CC2)c2cc(N3CCNCC3)c(F)cc2c1=O [Ciprofloxacine] | – | – | antibiotic adsorbed by the charcoal ([1]; time zero sample = approximately one minute of contact): ~70%; antibiotic adsorbed onto the charcoal ([1]; within one hour): Almost all of the antibiotic was adsorbed |
| O=C(O)[C@H]1/C(=C/CO)O[C@@H]2CC(=O)N21 [Clavulanate] | 22% | 3.5% | – |
| CCc1c2c(nc3ccc(O)cc13)-c1cc3c(c(=O)n1C2)COC(=O)[C@]3(O)CC [SN-38, 7-ethyl-10-hydroxycamptothecin] | – | – | time to complete adsorption [3]: ~30 min; antineoplastic activity relative to the prodrug form (Irinotecan) (topoisomerase I): 1000 fold |
| C[C@]1(Cn2ccnn2)[C@H](C(=O)O)N2C(=O)C[C@H]2S1(=O)=O [Tazobactam] | <20% | – | – |
| CN(C)c1cc(NC(=O)CNC(C)(C)C)c(O)c2c1C[C@H]1C[C@H]3[C@H](N(C)C)C(O)=C(C(N)=O)C(=O)[C@@]3(O)C(O)=C1C2=O [Tigecycline] | 21% | – | – |
| CC[C@H]1OC(=O)C[C@@H](O)[C@H](C)[C@@H](O[C@@H]2O[C@H](C)[C@@H](O[C@H]3C[C@@](C)(O)[C@@H](O)[C@H](C)O3)[C@H](N(C)C)[C@H]2O)[C@@H](CC=O)C[C@@H](C)C(=O)/C=C/C(C)=C/[C@@H]1CO[C@@H]1O[C@H](C)[C@@H](O)[C@@H](OC)[C@H]1OC [Tylosine] | <3% | <3% | – |
| CN[C@H](CC(C)C)C(=O)N[C@H]1C(=O)N[C@@H](CC(N)=O)C(=O)N[C@H]2C(=O)N[C@H]3C(=O)N[C@H](C(=O)N[C@H](C(=O)O)c4cc(O)cc(O)c4-c4cc3ccc4O)[C@H](O)c3ccc(c(Cl)c3)Oc3cc2cc(c3O[C@@H]2O[C@H](CO)[C@@H](O)[C@H](O)[C@H]2O[C@H]2C[C@](C)(N)[C@H](O)[C@H](C)O2)Oc2ccc(cc2Cl)[C@H]1O [Vancomycin] | 27% | <1.25% | – |
| CCc1c2c(nc3ccc(OC(=O)N4CCC(N5CCCCC5)CC4)cc13)-c1cc3c(c(=O)n1C2)COC(=O)[C@]3(O)CC [irinotecan, Irinotecan] | – | – | time to complete adsorption [4]: about 15 minutes |
